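Briefly, cells in 96-well plates were exposed to five compound concentrations for 48 h, and endpoints were estimated by linear interpolation. Abbreviation: GI50, concentration required for 50% inhibition of growth.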 Activity calls are given as the source filed them. No stated cut-off is given here; in the data, active = GI50 up to about 1.1 µM and inactive = higher.

Test systems include HCC 2998; SF-295; MOLT-4; HOP-62; ACHN; NCI-H460; OVCAR-5; NCI-H522; OVCAR-3; UACC-62; COLO 205; RXF 393; SNB-75; HT-29; SF-268; HCT-116; A498; TK-10; HOP-92.
Experiment in all cases: inhibition of tumour cell growth, NCI panel, 48 h

Consider `Oc1ccccc1/C=N/c1ccc(-c2nc3ccccc3s2)cc1`, for which the GI50 in the experiment on HCC 2998 was 20.3 µM (inactive); in the experiment on SF-295, 24.1 µM (inactive); with MOLT-4, 22.7 µM (inactive); with HOP-62, 19.1 µM (inactive); in the experiment on ACHN, 22.4 µM (inactive); in the experiment on NCI-H460, 25 µM (inactive). For the same molecule, the GI50 is 28.3 µM (inactive) with OVCAR-5; 17.3 µM (inactive) in the experiment with NCI-H522; 20.6 µM (inactive) in the experiment on OVCAR-3; 21.2 µM (inactive) in the experiment with UACC-62; 19.6 µM (inactive) in the experiment with COLO 205; 28.5 µM (inactive) with RXF 393. The GI50 was 36.1 µM (inactive) with SNB-75; 30.8 µM (inactive) with HT-29; 23.2 µM (inactive) in the experiment with SF-268; 29.6 µM (inactive) with HCT-116; 21.4 µM (inactive) in the experiment with A498; 31.2 µM (inactive) in the experiment with TK-10. In addition, the GI50 in the experiment with HOP-92 was 17.7 µM (inactive).
Turning to `C#Cc1ccccc1C(=O)OC`, the GI50 in the experiment with HCC 2998, with SF-295, with MOLT-4, with HOP-62, with ACHN and in the experiment with NCI-H460 was > 100 µM (inactive) throughout. Also, the GI50 in the experiment with OVCAR-5 was > 100 µM (inactive); in the experiment with NCI-H522, 35.9 µM (inactive); in the experiment with OVCAR-3 it was > 100 µM (inactive); in the experiment on UACC-62, > 100 µM (inactive); in the experiment on COLO 205, > 100 µM (inactive); in the experiment with RXF 393 it was > 100 µM (inactive). The GI50 in the experiment on SNB-75 is 11.5 µM (inactive); in the experiment on HT-29, > 100 µM (inactive); in the experiment on HCT-116, > 100 µM (inactive); in the experiment with A498, > 100 µM (inactive); in the experiment on TK-10, > 100 µM (inactive); in the experiment on HOP-92 it was > 100 µM (inactive).
As for `CCC1=C(C[C@H]2NCCc3cc(OC)c(OC)cc32)C[C@H]2c3cc(OC)c(OC)cc3CCN2C1`, the GI50 in the experiment with HCC 2998 was 0.0293 µM (active); in the experiment with SF-295 it was 0.0331 µM (active); in the experiment on MOLT-4 it was 0.0128 µM (active); in the experiment with HOP-62 it was 0.0286 µM (active); in the experiment on ACHN it was 0.0388 µM (active); in the experiment on NCI-H460 it was 0.0261 µM (active). Besides, the GI50 with OVCAR-5 was 0.0521 µM (active); with NCI-H522, 0.0257 µM (active); in the experiment with OVCAR-3 it was 0.0387 µM (active); in the experiment with UACC-62, 0.0336 µM (active); in the experiment with RXF 393 it was 0.0254 µM (active); with SNB-75, 0.0332 µM (active). Further, the GI50 in the experiment with HT-29 was 0.0272 µM (active); in the experiment on SF-268 it was 0.0356 µM (active); with HCT-116, 0.0173 µM (active); in the experiment on A498, 0.0181 µM (active); in the experiment on HOP-92, 0.0204 µM (active).
As for `CCOC(=O)C1C=C2O[C@@H]3OC4(CCCCC4)O[C@@H]3C2[C@H]2C(=O)C=CC(=O)[C@@]12C(=O)OC` (stereo not given in full), the GI50 in the experiment on HCC 2998 is 14.3 µM (inactive); in the experiment on SF-295, 18.2 µM (inactive); with MOLT-4, 2.7 µM (inactive); with HOP-62 it was 20 µM (inactive); in the experiment on ACHN, 18.1 µM (inactive); in the experiment with NCI-H460, 14.6 µM (inactive). The GI50 is 17.1 µM (inactive) in the experiment on OVCAR-5; 3.98 µM (inactive) in the experiment with NCI-H522; 7.89 µM (inactive) with OVCAR-3; 16.8 µM (inactive) in the experiment on UACC-62; 8.61 µM (inactive) with COLO 205; 1.66 µM (inactive) in the experiment with RXF 393. Moreover, the GI50 in the experiment on SNB-75 is 19.4 µM (inactive); with HT-29, 6.9 µM (inactive); with SF-268, 12.4 µM (inactive); with HCT-116 it was 6.61 µM (inactive); in the experiment with A498, 18.3 µM (inactive); with TK-10, 13.6 µM (inactive). The GI50 in the experiment with HOP-92 is 12.2 µM (inactive).
As for `Cc1ccc(S(=O)(=O)NC(C(=O)O)C(C)C)cc1` (stereo not given), the GI50 in the experiment with HCC 2998, in the experiment on SF-295, in the experiment on MOLT-4, in the experiment on HOP-62, in the experiment on ACHN and in the experiment on NCI-H460 was > 100 µM (inactive) throughout. Besides, the GI50 in the experiment with OVCAR-5, in the experiment on NCI-H522, in the experiment on OVCAR-3, with UACC-62, with RXF 393 and in the experiment with SNB-75 was > 100 µM (inactive) each time. Further, the GI50 in the experiment with HT-29, in the experiment with SF-268, in the experiment with HCT-116, with A498, in the experiment on TK-10 and with HOP-92 was > 100 µM (inactive) each time.
As for `CC(=O)NC1C(OCc2ccccc2)OC(CO)C(O)C1OC(C)C(=O)N[C@@H](C)C(=O)N[C@H](CCC(=O)OCCNc1c2ccccc2nc2cccc([N+](=O)[O-])c12)C(N)=O` (stereo not given in full), the GI50 with HCC 2998 was 0.000681 µM (active); with SF-295 it was 0.00427 µM (active); with MOLT-4 it was 0.00385 µM (active); in the experiment on ACHN, 0.00145 µM (active); in the experiment on NCI-H460 it was 0.000129 µM (active); with OVCAR-5, 0.00206 µM (active). Moreover, the GI50 in the experiment on NCI-H522 is 0.00174 µM (active); in the experiment with OVCAR-3, 0.00142 µM (active); in the experiment with UACC-62, 0.000451 µM (active); with COLO 205, 0.00111 µM (active); in the experiment with RXF 393 it was 0.0012 µM (active); in the experiment with SNB-75, 0.0114 µM (active). Moreover, the GI50 was 0.000186 µM (active) in the experiment with HT-29; 0.00394 µM (active) in the experiment on SF-268; 0.000195 µM (active) with HCT-116; 0.00501 µM (active) with A498; 0.00344 µM (active) in the experiment with TK-10; 0.00178 µM (active) in the experiment with HOP-92.
Regarding `O=CN/C=C/c1ccccc1O`, the GI50 in the experiment on HCC 2998, in the experiment on SF-295, with MOLT-4, in the experiment on HOP-62, in the experiment on ACHN and in the experiment on NCI-H460 was > 100 µM (inactive) in each case. The GI50 with OVCAR-5, in the experiment on NCI-H522, in the experiment with OVCAR-3, in the experiment with UACC-62, in the experiment on COLO 205 and in the experiment on RXF 393 was > 100 µM (inactive) throughout. The GI50 is > 100 µM (inactive) in the experiment with SNB-75; > 100 µM (inactive) in the experiment on HT-29; > 79.8 µM (inactive) with SF-268; > 100 µM (inactive) in the experiment on HCT-116; > 100 µM (inactive) with A498; > 100 µM (inactive) with TK-10. Further, the GI50 in the experiment on HOP-92 was > 100 µM (inactive).
For the molecule `CC(=O)NNc1nc(C)c(C(=O)/C=C/c2cccc([N+](=O)[O-])c2)s1`, the GI50 in the experiment with HCC 2998, with SF-295, with MOLT-4, in the experiment on HOP-62, in the experiment on NCI-H460 and in the experiment with OVCAR-5 was > 100 µM (inactive) throughout. The GI50 in the experiment on NCI-H522, in the experiment on OVCAR-3, in the experiment with UACC-62, in the experiment with COLO 205, with RXF 393 and in the experiment with HT-29 was > 100 µM (inactive) throughout. Also, the GI50 in the experiment with SF-268, in the experiment with HCT-116, in the experiment with A498, in the experiment on TK-10 and in the experiment on HOP-92 was > 100 µM (inactive) in each case.

The values are drawn from ChEMBL document CHEMBL1201862, “PubChem BioAssay data set” (2004).
